Literature values in patent US20050065125A1, “2-alkylidene-19-nor-vitamin D derivatives for the treatment of osteopenia or male osteoporosis” (Pfizer Inc, priority 2003, published 2005).

Conditions: chronic mode, 7 days, rats

Structure (SMILES) | Bone calcium mobilization (serum calcium) activity relative to the native hormone 1,25-(OH)2D3
C=C1[C@H](O)CC(=C/C=C2\CCC[C@]3(C)[C@@H]([C@H](C)CCCC(C)(C)O)CC[C@@H]23)C[C@H]1O [2-Methylene-19-Nor-1,25-(OH)2D3, 1α,25-dihydroxy-2-methylene-19-nor-vitamin D3] | 10-100 times
C=C1[C@H](O)CC(=C/C=C2\CCC[C@]3(C)[C@@H]([C@@H](C)CCCC(C)(C)O)CC[C@@H]23)C[C@H]1O [2-Methylene-19-Nor-20S-1,25-(OH)2D3, (20S)-1α,25-dihydroxy-2-methylene-19-nor-vitamin D3] | at least 10 times
